Reference: patent US8017786B2, “Substituted β-phenyl-α-hydroxy-propanoic acid, synthesis method and use thereof” (Northwest University, priority 2006, dated 2011)

How the values were obtained:
Assay type in all cases: in vivo, rat
[1] = system: rats with cardiac ischemia reperfusion (I/R) injury; test: Myocardial infarction areas caused by cardiac muscle I/R; conditions: for aar/lv / nec/aar / nec/lv: 5 days, ischemia 30 min, reperfusion 30 min
Experimental: (§1) 52 SD rats having a body weight of 220±20 g were randomly divided into model control group, salviannic acid injection group (in 1 mL/kg), and group of bornyl β-(3,4-dihydroxylphenyl)-α-hydroxylpropionate ester at a small, middle and large dose (ip 5, 15, 35 mg/kg). The rats of the normal group and the model control group were ip administered with equal-volume of physiologic saline. The rats of all groups were administered for consecutive 5 days. When the rats were administered for the last time, they were simultaneously anesthetized with 1.5% pentobarbital sodium (ip 45 mg/kg), then a catheter was inserted into the right carotid artery, and connected via a transducer to an eight-channeled physiological recorder. Tracheal cannula was performed, and the ventilation rate was maintained at 60 times/min. The chest was opened, a 6/0 suture was used to form a loop at a site 1˜2 mm from the root of the anterior descending coronary artery, and a plastic pipe was introduced through the loop, then the loop was tightened up. The change of electrocardiogram was observed. An increase or decrease of ST indicated the success of ligation. The color of the myocardial tissue below the ligation suture became darker. 30 minutes later, the plastic pipe was pulled out to allow coronary artery blood flowing again and cause hyperemia of local tissue during reperfusion. For the groups subjected to ischemia for 30 min and reperfusion for 30 min, the myocardial infarction areas were recorded before the test, after ischemia for 1 min and 30 min, and after reperfusion for 30 min; for the groups subjected to ischemia for 30 min and reperfusion for 2 h, cardiac tissue samples were taken and fixed using 10% formalin, embedded with paraffin, serially sliced into sections with a thickness of 4 μm, and separately subjected to immunohistochemistry tests; the rats of the sham operation group were subjected only to the introduction of suture but their coronary arteries were not ligated.
After the rats were subjected to ischemia and reperfusion for 30 minutes, their anterior descending coronaries were ligated again, then they were sacrificed, their hearts were removed promptly, and 0.5 mL of 1% evans blue was injected into heart chambers via aorta to distinguish the ischemic regions and the non-ischemic regions. After the heart atrium and right ventricle were cut-off, the heart was refrigerated at −20° C. for 30 min, then placed in a tailor-made slice groove, and cut along the long axis to form 2 mm slices. The slices were immersed in 1% TTC phosphoric acid buffer solution (pH7.4), and incubated at 37° C. for 30 min to distinguish risky regions and necrotic regions. Then the slices were fixed with 10% formaldehyde for 24 h to enhance staining color for contrast photography. After the above treatment, the myocardial tissue was divided into: normal myocardia in blue, ischemic myocardia in light red, and necrotic myocardion in gray. A computer image analysis software was used to calculate the percentage of the area of the infarct myocardial region (nec) based on the area of the risky myocardial region (aar, i.e., ischemic myocardia, including ischemic infarct region and ischemic non-infarct region) (nec/aar), and the percentage of the area of the infarct myocardial region based on the whole area of the myocardia (nec/lv) to indicate the degree of infarct, as well as the percentage of the area of the risky myocardia based on the area of the left ventricle (aar/lv).

Bcl-2 = test: Immunohistochemistry protein expression in I/R myocardial tissue: Bcl-2; conditions: for Bcl-2 protein expression, OD value: 5 days, ischemia 30 min, reperfusion 2 h
Experimental: as §1
Standard immunohistochemistry ABC and SP methods were employed for staining. Bax: anti-rabbit polyclonal antibody (Santa CruzBio. Inc.) at a dilution of 1:200; […]: anti-rabbit polyclonal antibody (TBD Tianjin Biotechnological Center). At a dilution of […]; caspase-3: anti-rabbit polyclonal antibody (Normarkers Fromont, Calif.), at a dilution of 1:200; MMP-2: anti-murine monoclonal antibody (NormarkersFromont, Calif.) at a dilution of 1:200; PPARγ: anti-caprine polyclonal antibody (Santa Cruz Bio. Inc.), at a dilution of 1:500. The specific procedures were performed in accordance with the instructions of the ABC and SP kits, DAB was used for color development, and neutral resin was used for mounting. PBS was used instead of the first antibody as a negative control. Cells with positive expression of the test polypeptides were of brown-yellow color, with MMP-2 protein being present in acytoplasm, Bcl-2 expressed in nuclear membrane and cytoplasm, Bax mainly in cytoplasm and partially in nucleus, and caspase-3 mainly in nucleus and partially in cytoplasm. CMIAS image analysis system was used for random selection of fields of slices and automatic selection of sites for analysis, and statistic analysis was performed by using mean optical density values or integral optical density values of the obtained myocardial tissue slices.

PPARγ = test: Immunohistochemistry protein expression in I/R myocardial tissue: PPARγ; conditions: 5 days, ischemia 30 min, reperfusion 2 h
Experimental: as §1
Standard immunohistochemistry ABC and SP methods were employed for staining. Bax: anti-rabbit polyclonal antibody (Santa CruzBio. Inc.) at a dilution of 1:200; […]: anti-rabbit polyclonal antibody (TBD Tianjin Biotechnological Center). At a dilution of […]; caspase-3: anti-rabbit polyclonal antibody (Normarkers Fromont, Calif.), at a dilution of 1:200; MMP-2: anti-murine monoclonal antibody (NormarkersFromont, Calif.) at a dilution of 1:200; PPARγ: anti-caprine polyclonal antibody (Santa Cruz Bio. Inc.), at a dilution of 1:500. The specific procedures were performed in accordance with the instructions of the ABC and SP kits, DAB was used for color development, and neutral resin was used for mounting. PBS was used instead of the first antibody as a negative control. […]

[2] = system: creatine kinase isoenzyme (CK-MB); test: Serum CK-MB activity in rats with myocardial ischemia; conditions: for CK-MB: serum, 24 h after ligation
Experimental: (§2) At 0.5 h after the rats of these groups were administered intragastrically, the standard II lead electrocardiogram (before modeling) was recorded, and the height of ST-T segment was measured. The rats of sham operation group were then subjected to coronary artery braid without ligation, and the rats of other groups were subjected to coronary artery ligation in accordance with the following method to establish cute myocardial ischemia models. The rats were subjected to etherization, fixed at supine position, and their normal electrocardiograms (before modeling) were recorded. The skin of left thorax was incised under aseptic conditions, the 4th intercostal muscles were isolated in blunt way, the heart was extruded by light pressure to the right thorax, the left anterior descending coronary artery was ligated at a position 2˜3 mm departing from the left coronary artery origin and between the pulmonary conus and the left auricle of heart, then the heart was sent back to thorax cavity immediately and sutured the incision. Penicillin was smeared topically for the prevention of infections. After operation, the electrocardiogram of postischemia was recorded immediately (at 0 min after modeling), and the height of ST-T segment was measured.

[3] = system: lactate dehydrogenase (LDH); test: Serum LDH activity in rats with myocardial ischemia; conditions: for LDH: serum, 24 h after ligation
Experimental: as §2

malondialdehyde (MDA) = test: Serum MDA content in rats with myocardial ischemia; conditions: for MDA: serum, 24 h after ligation
Experimental: as §2

CC1(C)C2CCC1(C)C(OC(=O)C(O)Cc1ccc(O)c(O)c1)C2 (stereo not drawn) [bornyl salvianate ester, bornyl β-(3,4-dihydroxylphenyl)-α-hydroxylpropionate ester]
aar/lv ([1]; 5 mg/kg ip): 64.09 ± 18.10% | nec/aar ([1]; 5 mg/kg ip): 61.72 ± 14.65% | nec/lv ([1]; 5 mg/kg ip): 48.45 ± 17.11% | aar/lv ([1]; 15 mg/kg ip): 63.02 ± 15.98% | nec/aar ([1]; 15 mg/kg ip): 62.63 ± 13.82% | nec/lv ([1]; 15 mg/kg ip): 48.23 ± 15.34% | aar/lv ([1]; 35 mg/kg ip): 51.97 ± 13.04 % | nec/aar ([1]; 35 mg/kg ip): 50.01 ± 9.03 % | nec/lv ([1]; 35 mg/kg ip): 40.21 ± 12.65 % | decrease of aar/lv in comparison with the model control group ([1]; large dose group (35 mg/kg ip)): 22.5% | decrease of nec/aar in comparison with the model control group ([1]; large dose group (35 mg/kg ip)): 22% | decrease of nec/lv in comparison with the model control group ([1]; large dose group (35 mg/kg ip)): 20.4% | Bcl-2 protein expression, OD value (Bcl-2; 5 mg/kg ip): 0.15 ± 0.03 | Bcl-2 protein expression, OD value (Bcl-2; 15 mg/kg ip): 0.15 ± 0.06 | Bcl-2 protein expression, OD value (Bcl-2; 35 mg/kg ip): 0.21 ± 0.04 | expression of Bcl-2 protein (in words) (Bcl-2; myocardial cells I/R): increase the expression of Bcl-2 protein | PPARγ protein expression, OD value (PPARγ; 5 mg/kg ip): 0.16 ± 0.05 | PPARγ protein expression, OD value (PPARγ; 15 mg/kg ip): 0.18 ± 0.06 | PPARγ protein expression, OD value (PPARγ; 35 mg/kg ip): 0.18 ± 0.10 | CK-MB ([2]; 10 mg/kg intragastric): 1267.0 ± 274.4 U/L | CK-MB ([2]; 20 mg/kg intragastric): 1074.1 ± 116.8 U/L | CK-MB ([2]; 40 mg/kg intragastric): 906.3 ± 99.9 U/L | activity of creatine kinase isoenzyme (CK-MB) (in words) ([2]; all dose groups, 24 h later): decreased | LDH ([3]; 10 mg/kg intragastric): 1663.7 ± 374.43 U/L | LDH ([3]; 20 mg/kg intragastric): 2022.7 ± 202.63 U/L | LDH ([3]; 40 mg/kg intragastric): 1712.5 ± 209.1 U/L | activity of lactate dehydrogenase (LDH) (in words) ([3]; all dose groups, 24 h later): decreased | MDA (malondialdehyde (MDA); 10 mg/kg intragastric): 21.69 ± 27.94 nmol/mL | MDA (malondialdehyde (MDA); 20 mg/kg intragastric): 10.60 ± 11.156 nmol/mL | MDA (malondialdehyde (MDA); 40 mg/kg intragastric): 9.43 ± 6.57 nmol/mL | serum MDA content (in words) (malondialdehyde (MDA); middle and large dose groups, no significant difference from model control): decrease tendency
